Assay results: patent publication US20070142317A1, “Topical composition for treatment of skin disorders” (QLT USA, Inc., priority 2003, published 2007)

Tested on: U937 monocytoid cells
Assay: TUNEL assay, dAd added at different times after dCF wash-out (Example 22)
Format: cell-based
Conditions: dCF 0 μM 2 days, wash, 2 more days
Procedure: At 0, 6, 24, and 48 hours, 50 μM dAd was added and the cells were incubated for an additional 2 days. At the end of the treatment period, the cells were harvested for analysis by a TUNEL assay, a flow-cytometry-based method to quantify the percentage of cells that have undergone apoptosis. The level of apoptosis is expressed as “% FITC shift”. As a positive control, the cells were exposed to 5 mM camptothecin for 2 days.

## Nc1ncnc2c1ncn2[C@H]1C[C@H](O)[C@@H](CO)O1 [dAd, 2′-deoxyadenosine]
50 μM dAd added 0 hr after wash-out
  % FITC Shift: 1.6%
50 μM dAd added 6 hr after wash-out
  % FITC Shift: 2.2%
50 μM dAd added 24 hr after wash-out
  % FITC Shift: 2.2%
50 μM dAd added 48 hr after wash-out
  % FITC Shift: 1.0%
